# In the NIST ThermoML archive (doi:10.1016/j.tca.2009.03.004):
# ± gives the expanded uncertainty stated by the source.
# Legend:
# [1] = DTA
# [2] = Molar enthalpy of transition or fusion; conditions: DSC
SMILES,Triple point temperature ([1]; Crystal),Triple point temperature ([1]; Nematic liquid crystal),Molar enthalpy of transition or fusion ([2]; Crystal),Molar enthalpy of transition or fusion ([2]; Nematic liquid crystal)
"CCCCCCCCOc1ccc(C=Nc2ccc(OCCCC)cc2)cc1 [benzenamine, 4-butoxy-N-[[4-(octyloxy)phenyl]methylene]-]",380.75 ± 0.5 K,389.55 ± 0.5 K,44.4 ± 1.2 kJ/mol,1.8 ± 0.15 kJ/mol
CCCCCCCCOc1ccc(C=Nc2ccc(OCC)cc2)cc1 [4-ethoxy-N-[[4-(octyloxy)phenyl]methylene]benzenamine],373.95 ± 0.5 K,395.55 ± 0.5 K,40.4 ± 1.1 kJ/mol,1.12 ± 0.13 kJ/mol
